Measurements as given in patent publication EP0012161A1, “Application of 0-(2-nitro-4-methyl-phenyl)-0-methyl-N-isopropyl-phosphoroamido-thioat for inhibition of side growth of tobacco-plants” (BAYER AG, priority 1978, dated 1980).

How the values were obtained:
Assay type in all cases: in vivo
Acer pseudoplatanus = experiment: Growth inhibition in woody plants (Acer pseudoplatanus), greenhouse spray test; settings: 1008 h, one-year seedlings sprayed to run-off, increase in growth measured after 6 weeks, 100 % = growth standstill, 0 % = growth as control, read-out: Wuchshemmung in %
From the text: (§1) Lösungsmittel : 30 Gewichtsteile Dimethylformamid Emulgator: 1 Gewichtsteil Polyoxyethylen-SorbitanMonolaurat
(§2) Zur Herstellung einer zweckmäßigen Wirkstoffzubereitung vermischt man 1 Gewichtsteil Wirkstoff mit den angegebenen Mengen Lösungsmittel und Emulgator und füllt mit Wasser auf die gewünschte Konzentration auf.
(§3) Einjährige Sämlinge mit einer Wuchshöhe von 25 cm werden mit den Wirkstoffzubereitungen bis zum Abtropfen besprüht. Nach 6 Wochen Wachstum im Gewächshaus wird der Zuwachs gemessen und die Wuchshemmung in Prozent des Zuwachses der Kontrollpflanzen berechnet. 100 % bedeuten den Stillstand des Wachstums und 0 % ein Wachstum entsprechend dem der Kontrollpflanzen.

Sojabohnen = experiment: Growth inhibition in soybeans, greenhouse spray test; settings: 504 h; active compound concentration 0,05 %; plants with first trifoliate leaf unfolded sprayed dripping wet; increase in growth measured after 3 weeks; 100 % = growth standstill; read-out: Wuchshemmung in %
From the text: (§4) Lösungsmittel: 30 Gewichtsteile Dimethylformamid Emulgator: 1 Gewichtsteil Polyoxyethylen-SorbitanMonolaurat
as §2
(§5) Sojabohnenpflanzen werden im Gewächshaus bis zur vollen Entfaltung des ersten Folgeblattes angezogen. In diesem Stadium werden die Pflanzen tropfnaß mit den Wirkstoffzubereitungen besprüht. Nach 3 Wochen wird bei allen Pflanzen der Zuwachs gemessen und die Wuchshemmung in % des Zuwachses der Kontrollpflanzen berechnet. Es bedeuten 100 % den Stillstand des Wachstums und O % ein Wachstum entsprechend dem der Kontrollpflanzen.

Alnus glutinosa = experiment: Growth inhibition in woody plants (Alnus glutinosa), greenhouse spray test; settings: 1008 h, one-year seedlings sprayed to run-off, increase in growth measured after 6 weeks, 100 % = growth standstill, 0 % = growth as control, read-out: Wuchshemmung in %
From the text: as §1, §2, §3

Tabak = experiment: Inhibition of side shoot growth in tobacco, greenhouse spray test after decapitation; settings: 504 h, decapitated plants sprayed to run-off, weight of side shoots after 3 weeks versus control, 100 % = no side shoots, read-out: Wuchshemmung in %
From the text: Lösungsmittel: 30 Gewichtsteile Dimethylformamid Emulgator: 1 Gewichtsteil Polyoxyethylensorbitan-Monolaurat
Zur Herstellung einer zweckmäßigen Wirkstoffzubereitung vermischt man 1 Gewichsteil Wirkstoff mit den angegebenen Mengen Lösungsmittel und.Emulgator und füllt mit Wasser auf die gewünschte Konzentration auf.
Tabakpflanzen werden im Gewächshaus bis zur Entfaltung des 7. Laubblattes angezogen. In diesem Stadium wird die apikale Vegetationsspitze der Pflanzen entfernt und die Pflanzen werden bis zum Abtropfen mit den Wirkstoffzubereitungen besprüht. Nach 3 Wochen werden die Seitentriebe der Pflanzen herausgebrochen und gewogen. Das Gewicht der Seitentriebe der behandelten Pflanzen wird mit dem der Kontrollpflanzen verglichen. 100 % Hemmung bedeutet das Fehlen von Seitentrieben und 0 t ein Wachstum der Seitentriebe entsprechend dem der Kontrollpflanzen.

Weizen = experiment: Growth inhibition in wheat, greenhouse spray test; settings: 504 h; active compound concentration 0,05 %; plants at 2-leaf stage sprayed dripping wet; increase in growth measured after 3 weeks; 100 = growth standstill; read-out: Wuchshemmung in %
From the text: as §4, §2
as §5, with “Weizenpflanzen werden” for “Sojabohnenpflanzen werden”, “bis zum 2-BlattStadium” for “bis zur vollen Entfaltung des ersten Folgeblattes”, “100 t” for “100 %”, “und 0” for “und O”

[1] = active compound concentration 0,1 %
[2] = active compound concentration 0,4 %

COP(=S)(NC(C)C)Oc1ccc(C)cc1[N+](=O)[O-] (stereo not drawn)
inhibition at 0.1 % (Acer pseudoplatanus; [1]): 65% | inhibition at 0.4 % (Acer pseudoplatanus; [2]): 83% | inhibition at 0.05 % (Sojabohnen): 80% | inhibition at 0.1 % (Alnus glutinosa; [1]): 50% | inhibition at 0.4 % (Alnus glutinosa; [2]): 75% | inhibition at 0.2 % (Tabak; active compound concentration 0,2 %): 92% | inhibition at 0.4 % (Tabak; [2]): 99% | inhibition at 0.6 % (Tabak; active compound concentration 0,6 %): 99% | inhibition at 0.05 % (Weizen): 35%
